Test results as given in PubChem BioAssay AID256 (DTP/NCI, 2004).
Where “and” joins values, the source holds several entries; their conditions need not be identical. Equal entries are not always repeated. Toxic doses and inconclusive results are not listed.

System: CD2F1 mice, L1210 leukemia ip, survival T/C
Assay: NCI In Vivo Anticancer Drug Screen. Data for tumor model L1210 Leukemia (intraperitoneal) in CD2F1 (CDF1) mice
Settings: higher = longer survival
Method in brief: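 Antitumor effect is scored in animals hosting a serially transplanted tumor. Values compare compound-dosed animals against vehicle-only controls as a simple quotient.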

Question: Which results are given for `O=C1c2ccccc2C(=O)c2c(NCCNCCO)ccc(NCCNCCO)c21`?
Answer: T/C (endpoint: mean survival time, dose: 1.0 mg/kg/injection, schedule: Q01DX005 (iv), vehicle: clinical formulation): 104 % of control; T/C (endpoint: mean survival time, dose: 2.0 mg/kg/injection, schedule: Q01DX005 (iv), vehicle: saline): 98 % of control; T/C (endpoint: mean survival time, dose: 2.0 mg/kg/injection, schedule: Q01DX009 (ip), vehicle: saline): 153 % of control; T/C (endpoint: mean survival time, dose: 2.5 mg/kg/injection, schedule: Q01DX009 (ip), vehicle: saline): 190 % of control; T/C (endpoint: mean survival time, dose: 2.62 mg/kg/injection, schedule: Q01DX009 (ip), vehicle: saline): 156 % of control; T/C (endpoint: mean survival time, dose: 4.0 mg/kg/injection, schedule: Q01DX005 (iv), vehicle: clinical formulation): 123 % of control; T/C (endpoint: mean survival time, dose: 4.0 mg/kg/injection, schedule: Q01DX005 (oral), vehicle: acid diluted with saline): 102 % of control; T/C (endpoint: mean survival time, dose: 4.0 mg/kg/injection, schedule: Q01DX009 (ip), vehicle: clinical formulation): 157 % of control; T/C (endpoint: mean survival time, dose: 4.0 mg/kg/injection, schedule: Q01DX009 (ip), vehicle: saline): 271 % of control; T/C (endpoint: mean survival time, dose: 4.0 mg/kg/injection, schedule: Q04DX003 (ip), vehicle: water): 284 % of control; T/C (endpoint: mean survival time, dose: 5.0 mg/kg/injection, schedule: Q01DX009 (ip), vehicle: saline): 156 % of control and 186 % of control; T/C (endpoint: mean survival time, dose: 5.25 mg/kg/injection, schedule: Q01DX009 (ip), vehicle: saline): 159 % of control; T/C (endpoint: mean survival time, dose: 8.0 mg/kg/injection, schedule: Q01DX005 (iv), vehicle: clinical formulation): 120 % of control; T/C (endpoint: mean survival time, dose: 8.0 mg/kg/injection, schedule: Q01DX005 (iv), vehicle: saline): 119 % of control; T/C (endpoint: mean survival time, dose: 8.0 mg/kg/injection, schedule: Q01DX005 (oral), vehicle: acid diluted with saline): 98 % of control; T/C (endpoint: mean survival time, dose: 8.0 mg/kg/injection, schedule: Q01DX005 (oral), vehicle: saline): 101 % of control; T/C (endpoint: mean survival time, dose: 8.0 mg/kg/injection, schedule: Q01DX009 (ip), vehicle: clinical formulation): 346 % of control; T/C (endpoint: mean survival time, dose: 8.0 mg/kg/injection, schedule: Q01DX009 (ip), vehicle: saline): 281 % of control; T/C (endpoint: mean survival time, dose: 8.0 mg/kg/injection, schedule: Q01DX009 (ip), vehicle: water): 163 % of control and 166 % of control; T/C (endpoint: mean survival time, dose: 8.0 mg/kg/injection, schedule: Q04DX003 (ip), vehicle: water): 261 % of control; T/C (endpoint: mean survival time, dose: 10.0 mg/kg/injection, schedule: Q01DX009 (ip), vehicle: saline): 218 % of control and 219 % of control; T/C (endpoint: mean survival time, dose: 10.5 mg/kg/injection, schedule: Q01DX009 (ip), vehicle: saline): 228 % of control; T/C (endpoint: mean survival time, dose: 11.7 mg/kg/injection, schedule: Q01DX001 (iv), vehicle: saline): 98 % of control; T/C (endpoint: mean survival time, dose: 16.0 mg/kg/injection, schedule: Q01DX005 (ip), vehicle: saline): 170 % of control; T/C (endpoint: mean survival time, dose: 16.0 mg/kg/injection, schedule: Q01DX005 (iv), vehicle: clinical formulation): 164 % of control; T/C (endpoint: mean survival time, dose: 16.0 mg/kg/injection, schedule: Q01DX005 (oral), vehicle: saline): 101 % of control; T/C (endpoint: mean survival time, dose: 16.0 mg/kg/injection, schedule: Q01DX009 (ip), vehicle: clinical formulation): 461 % of control; T/C (endpoint: mean survival time, dose: 16.0 mg/kg/injection, schedule: Q01DX009 (ip), vehicle: saline): 529 % of control; T/C (endpoint: mean survival time, dose: 16.0 mg/kg/injection, schedule: Q01DX009 (ip), vehicle: water): 153 % of control and 183 % of control; T/C (endpoint: mean survival time, dose: 19.4 mg/kg/injection, schedule: Q01DX001 (iv), vehicle: saline): 102 % of control; T/C (endpoint: mean survival time, dose: 20.0 mg/kg/injection, schedule: Q01DX009 (ip), vehicle: saline): 158 % of control and 219 % of control; T/C (endpoint: mean survival time, dose: 32.0 mg/kg/injection, schedule: Q01DX005 (ip), vehicle: saline): 263 % of control; T/C (endpoint: mean survival time, dose: 32.0 mg/kg/injection, schedule: Q01DX005 (iv), vehicle: saline): 150 % of control; T/C (endpoint: mean survival time, dose: 32.0 mg/kg/injection, schedule: Q01DX005 (oral), vehicle: acid diluted with saline): 98 % of control; T/C (endpoint: mean survival time, dose: 32.0 mg/kg/injection, schedule: Q01DX005 (oral), vehicle: saline): 103 % of control; T/C (endpoint: mean survival time, dose: 32.0 mg/kg/injection, schedule: Q01DX009 (ip), vehicle: clinical formulation): 96 % of control; T/C (endpoint: mean survival time, dose: 32.0 mg/kg/injection, schedule: Q01DX009 (ip), vehicle: water): 92 % of control; T/C (endpoint: mean survival time, dose: 32.0 mg/kg/injection, schedule: Q04DX003 (ip), vehicle: saline): 160 % of control; T/C (endpoint: mean survival time, dose: 32.4 mg/kg/injection, schedule: Q01DX001 (ip), vehicle: saline): 158 % of control and 160 % of control; T/C (endpoint: mean survival time, dose: 32.4 mg/kg/injection, schedule: Q01DX001 (iv), vehicle: saline): 117 % of control; T/C (endpoint: mean survival time, dose: 40.0 mg/kg/injection, schedule: Q01DX009 (ip), vehicle: saline): 91 % of control and 96 % of control; T/C (endpoint: mean survival time, dose: 42.0 mg/kg/injection, schedule: Q01DX009 (ip), vehicle: saline): 90 % of control; T/C (endpoint: mean survival time, dose: 54.0 mg/kg/injection, schedule: Q01DX001 (ip), vehicle: saline): 150 % of control and 160 % of control; T/C (endpoint: mean survival time, dose: 64.0 mg/kg/injection, schedule: Q01DX005 (ip), vehicle: saline): 89 % of control; T/C (endpoint: mean survival time, dose: 64.0 mg/kg/injection, schedule: Q01DX005 (oral), vehicle: acid diluted with saline): 92 % of control; T/C (endpoint: mean survival time, dose: 64.0 mg/kg/injection, schedule: Q01DX009 (ip), vehicle: water): 90 % of control; T/C (endpoint: mean survival time, dose: 64.0 mg/kg/injection, schedule: Q04DX003 (ip), vehicle: saline): 289 % of control; T/C (endpoint: mean survival time, dose: 90.0 mg/kg/injection, schedule: Q01DX001 (ip), vehicle: saline): 182 % of control; T/C (endpoint: mean survival time, dose: 128.0 mg/kg/injection, schedule: Q01DX005 (oral), vehicle: acid diluted with saline): 100 % of control; T/C (endpoint: mean survival time, dose: 128.0 mg/kg/injection, schedule: Q04DX003 (ip), vehicle: saline): 247 % of control; T/C (endpoint: mean survival time, dose: 150.0 mg/kg/injection, schedule: Q01DX001 (ip), vehicle: saline): 221 % of control and 98 % of control; T/C (endpoint: median survival time, dose: 0.25 mg/kg/injection, schedule: Q01DX005 (iv), vehicle: clinical formulation): 97 % of control; T/C (endpoint: median survival time, dose: 0.25 mg/kg/injection, schedule: Q01DX005 (iv), vehicle: water): 102 % of control; T/C (endpoint: median survival time, dose: 0.25 mg/kg/injection, schedule: Q01DX009 (ip), vehicle: water): 118 % of control; T/C (endpoint: median survival time, dose: 0.5 mg/kg/injection, schedule: Q01DX005 (iv), vehicle: clinical formulation): 97 % of control; T/C (endpoint: median survival time, dose: 0.5 mg/kg/injection, schedule: Q01DX005 (iv), vehicle: water): 98 % of control; T/C (endpoint: median survival time, dose: 0.5 mg/kg/injection, schedule: Q01DX009 (ip), vehicle: clinical formulation): 121 % of control; T/C (endpoint: median survival time, dose: 1.0 mg/kg/injection, schedule: Q01DX005 (iv), vehicle: clinical formulation): 102 % of control; T/C (endpoint: median survival time, dose: 1.0 mg/kg/injection, schedule: Q01DX005 (iv), vehicle: water): 97 % of control; T/C (endpoint: median survival time, dose: 2.0 mg/kg/injection, schedule: Q01DX005 (iv), vehicle: clinical formulation): 97 % of control; T/C (endpoint: median survival time, dose: 2.0 mg/kg/injection, schedule: Q01DX005 (iv), vehicle: water): 102 % of control; T/C (endpoint: median survival time, dose: 2.0 mg/kg/injection, schedule: Q01DX009 (ip), vehicle: Klucel (hydroxypropylcellulose) (HPC)): 151 % of control; T/C (endpoint: median survival time, dose: 4.0 mg/kg/injection, schedule: Q01DX005 (iv), vehicle: clinical formulation): 115 % of control; T/C (endpoint: median survival time, dose: 4.0 mg/kg/injection, schedule: Q01DX009 (ip), vehicle: Klucel (hydroxypropylcellulose) (HPC)): 197 % of control; T/C (endpoint: median survival time, dose: 4.0 mg/kg/injection, schedule: Q01DX009 (ip), vehicle: clinical formulation): 160 % of control; T/C (endpoint: median survival time, dose: 4.0 mg/kg/injection, schedule: Q01DX009 (ip), vehicle: water): 156 % of control; T/C (endpoint: median survival time, dose: 4.0 mg/kg/injection, schedule: Q01DX009 (sc), vehicle: Klucel (hydroxypropylcellulose) (HPC)): 120 % of control; T/C (endpoint: median survival time, dose: 4.0 mg/kg/injection, schedule: Q01DX009 (sc), vehicle: water): 112 % of control; T/C (endpoint: median survival time, dose: 8.0 mg/kg/injection, schedule: Q01DX009 (ip), vehicle: Klucel (hydroxypropylcellulose) (HPC)): 156 % of control and 182 % of control; T/C (endpoint: median survival time, dose: 8.0 mg/kg/injection, schedule: Q01DX009 (ip), vehicle: clinical formulation): 196 % of control; T/C (endpoint: median survival time, dose: 8.0 mg/kg/injection, schedule: Q01DX009 (ip), vehicle: water): 177 % of control; T/C (endpoint: median survival time, dose: 16.0 mg/kg/injection, schedule: Q01DX005 (iv), vehicle: water): 155 % of control; T/C (endpoint: median survival time, dose: 16.0 mg/kg/injection, schedule: Q01DX005 (oral), vehicle: Klucel (hydroxypropylcellulose) (HPC)): 104 % of control; T/C (endpoint: median survival time, dose: 16.0 mg/kg/injection, schedule: Q01DX009 (ip), vehicle: Klucel (hydroxypropylcellulose) (HPC)): 170 % of control and 188 % of control; T/C (endpoint: median survival time, dose: 16.0 mg/kg/injection, schedule: Q01DX009 (ip), vehicle: clinical formulation): 238 % of control; T/C (endpoint: median survival time, dose: 16.0 mg/kg/injection, schedule: Q01DX009 (ip), vehicle: water): 262 % of control; T/C (endpoint: median survival time, dose: 16.0 mg/kg/injection, schedule: Q01DX009 (sc), vehicle: Klucel (hydroxypropylcellulose) (HPC)): 174 % of control; T/C (endpoint: median survival time, dose: 16.0 mg/kg/injection, schedule: Q01DX009 (sc), vehicle: water): 164 % of control; T/C (endpoint: median survival time, dose: 32.0 mg/kg/injection, schedule: Q01DX005 (iv), vehicle: clinical formulation): 180 % of control; T/C (endpoint: median survival time, dose: 32.0 mg/kg/injection, schedule: Q01DX005 (iv), vehicle: water): 174 % of control; T/C (endpoint: median survival time, dose: 32.0 mg/kg/injection, schedule: Q01DX005 (oral), vehicle: Klucel (hydroxypropylcellulose) (HPC)): 104 % of control; T/C (endpoint: median survival time, dose: 32.0 mg/kg/injection, schedule: Q01DX009 (ip), vehicle: Klucel (hydroxypropylcellulose) (HPC)): 197 % of control and 365 % of control; T/C (endpoint: median survival time, dose: 32.0 mg/kg/injection, schedule: Q01DX009 (ip), vehicle: clinical formulation): 115 % of control; T/C (endpoint: median survival time, dose: 32.0 mg/kg/injection, schedule: Q01DX009 (ip), vehicle: water): 101 % of control; T/C (endpoint: median survival time, dose: 32.0 mg/kg/injection, schedule: Q01DX009 (sc), vehicle: water): 172 % of control; T/C (endpoint: median survival time, dose: 64.0 mg/kg/injection, schedule: Q01DX009 (sc), vehicle: Klucel (hydroxypropylcellulose) (HPC)): 96 % of control; T/C (endpoint: median survival time, dose: 64.0 mg/kg/injection, schedule: Q01DX009 (sc), vehicle: water): 101 % of control; T/C (endpoint: median survival time, dose: 1024.0 mg/kg/injection, schedule: Q01DX005 (oral), vehicle: Klucel (hydroxypropylcellulose) (HPC)): 91 % of control
